Measurements from the METLIN SMRT retention time set (Domingo-Almenara et al. 2019).

Experiment: gradient 5% acetonitrile 3 min, to 50% in 2 min, to 85% in 15 min, held 3 min, 100 µL/min
Conditions: column: Zorbax Extend-C18 2.1 x 50 mm; eluents: water / acetonitrile, 0.1% formic acid
In short: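 Each retention time is based on an adduct peak selected computationally and verified by manual inspection. Measurements used HPLC–quadrupole time-of-flight mass spectrometry in positive and negative ionization mode on mixtures of ~100 pure standards. Chromatography ran on a Zorbax Extend-C18 column (2.1 × 50 mm, 1.8 μm) at 100 μL/min with water and acetonitrile, each containing 0.1% formic acid, and dead and dwell volumes of 40 μL and 900 μL.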

| SMILES | RP-LC retention time |
| --- | --- |
| O=S(=O)(c1ccc(-c2cnc(C3CCCC3)o2)s1)N1CCN(c2ncccn2)CC1 | 1120 s |
| CC(C)c1nnc2n1C(C(=O)NCC(F)F)CCCC2 (configuration not stated) | 580 s |
| O=C(c1cc(Cc2n[nH]c(=O)c3ccccc23)ccc1F)N1CCN(C(=O)C2CC2)CC1 | 717 s |
| CCCNS(=O)(=O)c1ccc(Cl)c(-c2nnc(-c3ccccc3)o2)c1 | 1010 s |
| O=C(c1c(F)cccc1F)N1CCN(S(=O)(=O)C2CC2)CC1 | 691 s |
| CC(C)NC(=O)Cn1c(=O)c2cnc(-c3ccccc3)nc2n(C)c1=O | 802 s |
| COc1ccccc1CNC(=O)C1(c2ccc(NC(C)=O)cc2)CCC1 | 736 s |
| O=C(NCc1ccccn1)C1CCN(S(=O)(=O)c2cc(C(=O)N3CCCCCC3)cs2)CC1 | 638 s |
| O=C(CN1CCN(Cc2ccc(F)cc2)C1=O)NCc1cc(F)cc(F)c1 | 826 s |
| Cn1nc(-c2nnc(-c3ccccc3)o2)c2c1CCN(S(=O)(=O)c1ccc(F)c(Cl)c1)C2 | 979 s |
| Cn1nc(-c2ccccc2)nc1C1CN(C(=O)NCC2CCCO2)C1 (configuration not stated) | 625 s |
| CCCCNC(=O)c1cn(CC)nc1S(=O)(=O)N1CCN(c2ccccc2OCC)CC1 | 1080 s |
| Cc1cc(C2CCCN2C(=O)Cc2ccc(F)cc2Cl)on1 (configuration not stated) | 851 s |
| Cc1ccsc1C(=O)N1CCC(N2C(=O)C(OCC3CC3)C23CCCCC3)CC1 (configuration not stated) | 1020 s |
| CCOC(=O)c1cccc(Nc2nc(C)nc3c2CCC3)c1 | 654 s |
| CCC(C)NS(=O)(=O)c1cc(-c2nc(C)cs2)n(C)c1C (configuration not stated) | 905 s |
| c1ccc(C2CN3CCSC3=N2)cc1 (configuration not stated) | 618 s |
| CCn1cnc(S(=O)(=O)N2CCC(C(=O)Nc3cc(OC)cc(OC)c3)CC2)c1 | 704 s |
| Cc1cc(C)n(-c2ccc(C(=O)N3CCN(c4ccccc4)CC3)cn2)n1 | 949 s |
| COCCOC(=O)C1=C(C)NC2=C(C(=O)C(C(=O)OC)C(C)C2)C1c1cccc(Cl)c1 (configuration not stated) | 899 s |
| CC(C)c1ccc(NC(=O)Cn2nc3c4sc(N(C)C)nc4ncn3c2=O)cc1 | 782 s |
| O=C(O)c1ccc(Nc2c3ccccc3nc3ccccc23)cc1 | 629 s |
| CC(C)CC(=O)N1CCCn2nc(-c3ccncc3)cc2C1 | 543 s |

| SMILES | RP-LC retention time |
| --- | --- |
| CN1CCCC1c1nc(C2CN(C(=O)c3cnccn3)C2)no1 (configuration not stated) | 546 s |
| Nc1ccc2c(c1Cl)C(=O)c1ccc(N)c(Cl)c1C2=O | 854 s |
| Cc1nc(CCNS(=O)(=O)c2cccc(C(F)(F)F)c2)no1 | 807 s |
| O=C(NCc1ccco1)C1CCCN(c2ccc(=O)n(-c3cccc(Cl)c3)n2)C1 (configuration not stated) | 808 s |
| Cc1ccc(Cl)cc1N1CCN(C(=O)C2CCN(S(=O)(=O)c3cn(C)cn3)CC2)CC1 | 859 s |
| Cc1nn2c(CNC(=O)c3cccc(C(F)(F)F)c3)c(C)nc2s1 | 688 s |
| Cc1cccc(S(=O)(=O)N2CC3CN(C(=O)c4ccco4)CC(C2)O3)c1 | 933 s |
| COc1ccc(NC(=O)c2cn(C)nc2S(=O)(=O)N2CCC(C)CC2)c(F)c1 | 997 s |
| OC(c1cc(C(F)(F)F)nc2c(Cl)cc(Cl)cc12)C1CCCCN1 (configuration not stated) | 786 s |
| CCCOc1nc2ccccc2nc1N1CCCC(C(=O)NC2CCCCC2)C1 (configuration not stated) | 1260 s |
| CN(C)c1nc2cc(C(=O)NC3CCCC3)sc2n1-c1ccc(F)cc1 | 1050 s |
| CC(C)c1ccc(-n2ccnc(NC(=O)Nc3cccc(F)c3)c2=O)cc1 | 1140 s |
| Cc1ccc(C)c(Sc2cc(N3CCC(C(=O)N4CCC(C(N)=O)CC4)CC3)ncn2)c1 | 652 s |
| CN1C(=O)C2(CCN(C(=O)c3ccccc3Cl)C2)c2ccccc21 (configuration not stated) | 787 s |
| COc1cc(=O)oc(/C=C/C=C/C=C/C(C)=C/C2(C)OC(C)C(C)(O)C2O)c1C (configuration not stated) | 846 s |
| CCC(c1cccs1)N1C(=O)[C@H]2CN(S(=O)(=O)c3cc(F)cc(F)c3)C[C@H]2C1=O (some centres not stated) | 1040 s |
| CCCS(=O)(=O)N1CC(=O)N(c2ccc(C)c(Cl)c2)C(C)(C(=O)NC2CCCCC2)C1 (configuration not stated) | 979 s |
| CCOC(=O)c1c(C)[nH]c(CCC(=O)NC2CCCCC2)c1C | 823 s |
| COc1ccc(NC(=O)NC(C(=O)N2CCc3ccccc32)C(C)C)cc1OC (configuration not stated) | 830 s |
| Cn1c(N2CCCC(C(=O)Nc3nccs3)C2)cc(=O)n(C)c1=O (configuration not stated) | 634 s |
| Cc1cc(C)cc(NC(=O)c2c(O)c3cccnc3n(-c3ccccc3)c2=O)c1 | 1430 s |
| O=C(c1cc(S(=O)(=O)N2CCCC(C(=O)N3CCc4ccccc4C3)C2)c[nH]1)N1CCCC1 (configuration not stated) | 808 s |
| O=C(NCc1ccc2c(c1)OCO2)C1CCN(c2cncnc2N2CCCCC2)CC1 | 659 s |

Continued, values first:

| RP-LC retention time | SMILES |
| --- | --- |
| 933 s | Cc1ccc(S(=O)(=O)CC(=O)Nc2nc(-c3ccccc3)cs2)cc1 |
| 992 s | Cc1ccc(N(C)C(=O)C2CCCN(S(=O)(=O)c3cc(-c4noc(C)n4)cs3)C2)cc1 (configuration not stated) |
| 1130 s | Cc1ccc(-c2nc(C)cc(OCC(=O)Nc3c(C)cc(C)cc3C)n2)cc1 |
| 726 s | Cc1ccc(CNC(=O)C2CCCN(c3nnc(C)c4c(C)n(-c5ccccc5)nc34)C2)cc1 (configuration not stated) |
| 1030 s | CCOc1ccc(-c2nc(CSCC(=O)NCc3cccs3)c(C)o2)cc1 |
| 864 s | O=C(Nc1ccc(OCc2nnc(-c3ccccc3)o2)cc1)c1ccsc1 |
| 1170 s | COc1ccc(NC(=O)c2noc3c2CC(C)CC3)c(OC)c1 (configuration not stated) |
| 1150 s | CCOc1ccc(-c2cc3c(=O)n(Cc4nc(-c5ccc(OCC)c(OC)c5)no4)ncn3n2)cc1 |
| 660 s | Cc1nnc2ccc(N3CCN(C(=O)Cc4cccc5ccccc45)CC3)nn12 |
| 972 s | CC(C)c1noc(-c2cc(=O)n(CC(=O)Nc3ccccc3)c3ccccc23)n1 |
| 860 s | CCN1C(=O)c2cccnc2Sc2cc(NC(=O)COc3ccccc3C)ccc21 |
| 854 s | CCc1noc(NC(C)=O)c1-c1ccc(C)c(S(=O)(=O)Nc2cc(OC)cc(OC)c2)c1 |
| 755 s | Cc1cc(C)cc(-n2ccnc2SCC(=O)Nc2cc(C)on2)c1 |
| 989 s | Cc1nc(CC(=O)Nc2nc(-c3ccc(C)c(C)c3)cs2)cs1 |
| 797 s | COc1ccc(-c2nc(C3CC(=O)N(c4ccc(OC)c(OC)c4)C3)no2)c(OC)c1 (configuration not stated) |
| 774 s | COC(=O)c1ccc(NC(=O)Cn2nc3nc(N4CCCC(C)C4)ccn3c2=O)cc1 (configuration not stated) |
| 1320 s | CCCN(CCC)c1nc2cc(C(=O)OC)ccc2c(=O)n1-c1ccccc1 |
| 685 s | Cc1nc(-c2ccc3c(c2)n(CC(=O)NC2CC2)c(=O)n3C(C)C)no1 |
| 984 s | O=C(CCc1c[nH]c2ccccc12)N1CCc2cc(-c3ccno3)ccc21 |
| 1090 s | COc1ccc(N2CCN(S(=O)(=O)c3cc(-c4cc(C(F)(F)F)[nH]n4)sc3C)CC2)cc1 |
| 670 s | COc1ccc(-c2nc(C)cc(C)c2CNS(=O)(=O)c2ccc(C)cc2)cc1 |

| RP-LC retention time | SMILES |
| --- | --- |
| 829 s | COc1cc(OC)cc(N2C(=O)c3cc(C)nn3CC2(C)C(=O)NCc2ccc(F)cc2)c1 (configuration not stated) |
| 739 s | CCOc1ccc(-c2nc3ncccn3c2NCc2ccccc2OC)cc1OC |
| 629 s | CCOc1ccc(-c2ccc(N3CCN(C(=O)c4ccc5ncsc5c4)CC3)nn2)cc1 |
| 742 s | Cc1ccc(Nc2c(-c3ccc(N(C)C)cc3)nc3ncccn23)cc1 |
| 1030 s | COc1ccc(-c2noc(CN3C(=O)COc4cc(C)ccc43)n2)cc1 |
| 733 s | CCn1c(C)c(CN2CCC(C(=O)NCc3ccc(C)cc3)CC2)c2ccccc21 |
| 865 s | COc1ccc(C(=O)N2CCc3ccc(C(=O)NCc4ccc(C)o4)cc32)cc1 |
| 723 s | Brc1ccc(CSc2nnc3ccc(-c4cccnc4)nn23)cc1 |
| 641 s | Cc1ccn2cc(-c3ccc(NS(=O)(=O)c4ccc5nc(C)sc5c4)cc3)nc2n1 |
| 882 s | COc1ccc(Cn2nccc2NC(=O)COc2ccc(Cl)cc2)cc1 |
| 1010 s | Cc1cccc(-c2nnc(Cc3nc(-c4ccc5c(c4)OCO5)no3)o2)c1 |
| 656 s | COCCN(Cc1ccc(C)cc1)Cc1cc(=O)n2ccc(C)cc2n1 |
| 966 s | CC(NC(=O)c1cn(-c2ncccc2-c2nc(-c3ccccc3)no2)cn1)c1ccccc1 (configuration not stated) |
| 1140 s | CC1=NS(=O)(=O)N(Cc2ccccc2)C=C1C(=O)OCc1nc(-c2ccc(F)cc2)no1 |
| 1230 s | Fc1ccc(C2Cn3nnc(-c4nc(-c5ccc(Cl)cc5)no4)c3CO2)cc1 (configuration not stated) |
| 887 s | O=C(CSc1nnc(-c2ccco2)o1)N1CCCc2ccccc21 |
| 642 s | Fc1cccc(-c2nc(-c3ccc4c(c3)ncn4CCN3CCOCC3)no2)c1 |
| 700 s | COc1ccccc1-c1nc(Cn2nnc(-c3nc(-c4ccc5c(c4)OCO5)no3)c2C)c(C)o1 |
| 956 s | Cc1cc(Cl)ccc1OCc1nc(-c2ccc3c(c2)ncn3CCC(=O)N2CCCCC2)no1 |
| 1180 s | CCCCNC(=O)Cc1c(C)nn(-c2nc(-c3ccc(Cl)cc3)cs2)c1C |
